Measured values: patent publication US20230355631A1, “PROCESS FOR IMPROVING FLUIDITY OF PALBOCICLIB ISETHIONATE AND COMPOSITION” (NANJING GRITPHARMA CO., LTD., priority 2020, published 2023)

Experiment: Properties of the granules / powder mix (angle of repose, bulk density, tap density, compression index)
Format: physicochemical
Conditions: bulk drug powder
Experimental: With reference to Example 7, 5 batches of samples 7-1, 7-2, 7-3, 7-4, and 7-5 were prepared by a capsule filling process after granules were prepared by dry granulation at different press roll pressures (a GL5-50 dry granulation machine with a 2.0 mm primary granulation sieve and a 1.0 mm secondary granulation sieve was used), and properties of the granules (including angle of repose, bulk density, and tap density), content uniformity of finished products, and other indexes were investigated separately. […] According to requirements of pharmacopoeia, the release rate of the samples is equal to or greater than 80% (Q) of the labelled amount in a medium with a pH of 1.2 within 30 minutes. Thus, the release rate of the various batches of samples (7-1, 7-2, 7-3, 7-4, and 7-5) was investigated in a medium with a pH of 1.2.
The palbociclib isethionate has poor fluidity and is a loose powder. […] Especially when capsules are filled in commercial batches in a large scale, the problem of difficulty in automatic filling at high speed will be caused due to poor fluidity of the powder. Moreover, the filled capsules have great differences in loading capacity, so that the content uniformity and the product quality are unqualified. […]

SMILES: CC(=O)c1c(C)c2cnc(Nc3ccc(N4CCNCC4)cn3)nc2n(C2CCCC2)c1=O.O=S(=O)(O)CCO [palbociclib isethionate]
- Fluidity of the raw material: poor fluidity
